Reference: patent US20060052458A1, “Preventive or remedy for intrauterine late embryonic development or pregnancy toxemia” (KISSEI PHARMACEUTICAL CO., LTD., priority 2003, published 2006)
Marks after values point to notes of the source that are not given here.

Key:
[1] = test system: rat L-NAME-induced gestational toxicosis model; test: Confirmation of effects on gestational toxicosis (Test Example 2); type: in vivo
Description: A gestational toxicosis model was created as follows. A 17th -gestation day rat was anesthetized with ether. Then, the poll was incised approximately 10 mm to transplant in control group an osmotic pressure pump filled with L-NAME, and in the normal group, in the similar manner, an osmotic pressure pump filled with physiological saline in place of L-NAME. To the test group, in addition to the above pump, an osmotic pressure pump filled with bis(2-{[(2S)-2-({(2R)-2-hydroxy-2-[4-hydroxy-3-(2-hydroxyethyl)phenyl]ethyl}amino)-1,2,3,4-tetrahydronaphthalene-7-yl]oxy}-N,N-dimethylacetamide) monosulfate (the compound represented by the above formula (Ia)) was implanted. On the 20th gestation day, the mother animal was anesthetized with ether, and the fetus was extirpated. Severity of static gangrene at the tip of fetal extremities was examined, and the amount of maternal urinary albumin and plasma triglyceride level were measured.
While bis(2-{[(2S)-2-({(2R)-2-hydroxy-2-[4-hydroxy-3-(2-hydroxyethyl)phenyl]ethyl)amino)-1,2,3,4-tetrahydronaphthalene-7-yl]oxy)-N,N-dimethylacetamide) monosulfate was dissolved in physiological saline and an osmotic pressure pump with the dose of 200 μg/day was inserted, L-NAME was dissolved in physiological saline to make 200 mg/mL for filling and an osmotic pressure pump with the dose of 48 mg/day was inserted.

[2] = test system: rat intrauterine growth retardation model induced by L-NAME; test: Confirmation of effects on IUGR (Test Example 1); type: in vivo
Description: IUGR model was created as follows in accordance with the method by Yallampalli et al. (Am J Obstet Gynecol, vol. 169: 1316-1320, 1993). A 17th-gestation day rat was anesthetized with ether. Then, the poll was incised approximately 10 mm to transplant in control group an osmotic pressure pump filled with L-NAME, and in the normal group, in the similar manner, an osmotic pressure pump filled with physiological saline in place of L-NAME. To the test group, in addition to the above pump, an osmotic pressure pump filled with bis(2-{[(2S)-2-({(2R)-2-hydroxy-2-[4-hydroxy-3-(2-hydroxyethyl)phenyl]ethyl}amino)-1,2,3,4-tetrahydronaphthalene-7-yl]oxy)-N,N-dimethylacetamide) monosulfate (the compound of the above formula (Ia)) was implanted. On the 20th gestation day, the mother animal was anesthetized with ether, and the fetus was extirpated and weighed. Maternal blood pressure was measured before ether anesthesia on the 17th and 20th gestation days. In statistical analysis, comparisons of control group with normal group or test group were conducted in F-test for variance. When there was equal variance, unpaired t-tests were performed. When there was unequal variance, Welch's test was performed.
Bis(2-{[(2S)-2-({(2R)-2-hydroxy-2-[4-hydroxy-3-(2-hydroxyethyl)phenyl]ethyl}amino)-1,2,3,4-tetrahydronaphthalene-7-yl]oxy}-N,N-dimethylacetamide) sulfate was dissolved in physiological saline and an osmotic pressure pump with the dose of 50 μg/day was inserted, while L-NAME was dissolved in physiological saline to make 50 mg/mL for filling and an osmotic pressure pump with the dose of 12 mg/day was inserted.

[3] = L-NAME 48 mg/day + compound 200 μg/day by osmotic pump from gestation day 17, examined on day 20
[4] = L-NAME 48 mg/day + compound 200 μg/day by osmotic pump, gestation day 20

SMILES: CN(C)C(=O)COc1ccc2c(c1)C[C@@H](NC[C@H](O)c1ccc(O)c(CCO)c1)CC2 [formula (Ia), bis(2-{[(2S)-2-({(2R)-2-hydroxy-2-[4-hydroxy-3-(2-hydroxyethyl)phenyl]ethyl}amino)-1,2,3,4-tetrahydronaphthalene-7-yl]oxy}-N,N-dimethylacetamide) monosulfate]
- Static gangrene in the tip of extremities (incidence %) [1, 3]: 8%
- The number of static gangrene in the tip of extremities/The number of fetuses [1, 3]: 16/203
- Maternal plasma triglyceride level [1, 4]: 143 µg/mL
- Maternal urinary albumin level [1, 4]: 222.1# μg/mL
- Change in maternal blood pressure after administration (effect on maternal heart) ([2]; 50 μg/day by osmotic pump, gestation days 17 to 20): no change in maternal blood pressure
- Mean blood pressure of dam ([2]; Day 20 of gestation, L-NAME 12 mg/day + compound 50 μg/day by osmotic pump): 102.5 mmHg
- Fetal body weight ([2]; pregnant rat, L-NAME 12 mg/day + compound 50 μg/day by osmotic pump from gestation day 17, fetus weighed on day 20): 3550 mg
